What follows are substances tested on anti-HA mAb clone 12ca5.
Assay type: binding
cyclo(GDVWALYASYA) was tested, and the “enrichment in affinity selection” value was “not enriched in the selection”.
For cyclo(GDAGPYDADYA), the “enrichment in affinity selection” value was “enriched”.
With cyclo(GDVGPDAYDYA) the “enrichment in affinity selection” value was “enriched”.
